# “Also recorded” adds a separate entry of the source.
# Experiments:
# [1] = test system: Langendorff-perfused guinea pig hearts; assay: Baseline electrophysiological properties (APD, CV) of perfused hearts by optical mapping; settings: for baseline APD / baseline CV (conduction velocity): optimal concentration of each agent (4.6 μM FGIN-1-27, 0.2 μM CsA, 64 μM 4′Cl-DZP, 10 μM GLIBEN)
# Experimental: All procedures involving the handling of animals were approved by the Animal Care and Use Committee of the Johns Hopkins University and adhered with public health service guidelines. As described in detail elsewhere (28), adult guinea pigs (n=48) were anesthetized with pentobarbital sodium (30 mg/kg ip), and retrogradely perfused as Langendorff preparations with oxygenated (95% 02-5% CO2) Tyrode solution containing (in mmol/l) 130 NaCl, 1.2 MgSO4, 4.75 KCl, 5.0 dextrose, and 1.25 CaCl2 (pH 7.40) at 36±1° C. Hearts were stained with the voltage-sensitive dye, di-4-ANEPPS (15 μmol/l) for 10 min, and then positioned in a chamber such that the mapping field was centered over a 0.8 cm diameter region of left ventricular epicardium, midway between apex and base. Gentle pressure was applied to the posterior surface of the heart with a movable piston to stabilize the mapped surface against the imaging window of the chamber allowing us to avoid the use of electromechanical inhibitors, which interfere with repolarization, and the incidence of arrhythmias. […] Pacing with a silver pin needle placed on the epicardium was performed intermittently and briefly at various times during the experimental protocol in order to obtain a quantitative assessment of epicardial conduction velocity at each time point. Pacing was then turned off in order to determine the intrinsic response of hearts to the ischemia reperfusion protocol independent of exogenous stimulation.
# (§1) An optical mapping system was designed with the capability of simultaneously recording transmembrane action potentials (APs) from 464 sites. Emitted fluorescence was collected using a custom designed optical macroscope imaging system consisting of a high numerical aperture photographic lens, a dichroic mirror and an emission filter as previously described in detail (29). Emitted light exiting the detector lens was filtered (>610 nm) and focused onto the photodiode array. Photocurrent from each photodiode underwent current-to-voltage conversion, amplification, band-pass filtering, multiplexing, and digitization (1600 samples/s per channel) with 16-bit precision.
# Following extraction and staining with di-4-ANEPPS, hearts were stabilized for 30 min. […] Pharmacological agents were delivered to the heart in one of two ways: 1) continuously, during control perfusion and reperfusion, or 2) in a high dose bolus (5-10× the optimal equilibration concentration), injected into the coronaries during the ischemic phase, 5 min before the onset of reperfusion. […] Following baseline perfusion at 15-20 mL/min to maintain a perfusion pressure of 60-70 mmHg, flow was completely stopped for 30 min (Ischemia phase), and APs (3.8 s epochs) were recorded at 1-min intervals. Following the ischemia phase, perfusion was restored initially at the same flow rate and then was adjusted slightly to exactly match the perfusion pressure during the baseline perfusion phase (Reperfusion phase). The optimal equilibration concentration of each agent was determined by its effects on ischemia-induced AP shortening, recovery of the AP duration (APD), and/or prevention of arrhythmias upon reperfusion.
# In order to investigate whether mitochondrial ROS-induced activation of IMAC underlies the electrical dysfunction of hearts subjected to IR, a protocol for reproducibly inducing ventricular fibrillation (VF) in Langendorff-perfused guinea pig hearts was established.
# [2] = test system: Langendorff-perfused guinea pig hearts; assay: Electrophysiological response to 30 min no-flow global ischemia; settings: for time for the onset of inexcitability during ischemia: no-flow ischemia, control hearts ˜18 min; for ischemia-induced APD shortening: pre-treatment before no-flow ischemia; for ischemia-induced APD shortening / ischemia-induced reduction of normalized APA and upstroke velocity (dF/dt): versus control hearts; for ischemia-induced reduction of normalized APA and upstroke velocity (dF/dt): relative to pre-ischemia baseline; for blunting of AP shortening and persistence of APs during ischemia at the highest concentration: 100 μM, 30 min no-flow ischemia
# Experimental: (§2) All procedures involving the handling of animals were approved by the Animal Care and Use Committee of the Johns Hopkins University and adhered with public health service guidelines. As described in detail elsewhere (28), adult guinea pigs (n=48) were anesthetized with pentobarbital sodium (30 mg/kg ip), and retrogradely perfused as Langendorff preparations with oxygenated (95% 02-5% CO2) Tyrode solution containing (in mmol/l) 130 NaCl, 1.2 MgSO4, 4.75 KCl, 5.0 dextrose, and 1.25 CaCl2 (pH 7.40) at 36±1° C. Hearts were stained with the voltage-sensitive dye, di-4-ANEPPS (15 μmol/l) for 10 min, and then positioned in a chamber such that the mapping field was centered over a 0.8 cm diameter region of left ventricular epicardium, midway between apex and base. Gentle pressure was applied to the posterior surface of the heart with a movable piston to stabilize the mapped surface against the imaging window of the chamber allowing us to avoid the use of electromechanical inhibitors, which interfere with repolarization, and the incidence of arrhythmias. Although experiments were typically completed within 1.5 to 2 h, these preparations remained stable for over 4 h of perfusion. Pacing with a silver pin needle placed on the epicardium was performed intermittently and briefly at various times during the experimental protocol in order to obtain a quantitative assessment of epicardial conduction velocity at each time point. Pacing was then turned off in order to determine the intrinsic response of hearts to the ischemia reperfusion protocol independent of exogenous stimulation.
# as §1
# (§3) Following extraction and staining with di-4-ANEPPS, hearts were stabilized for 30 min. Monitoring of APs, perfusion pressure, coronary flow, and temperature ensured electrical stability in all preparations (n=48) used in this study. Pharmacological agents were delivered to the heart in one of two ways: 1) continuously, during control perfusion and reperfusion, or 2) in a high dose bolus (5-10× the optimal equilibration concentration), injected into the coronaries during the ischemic phase, 5 min before the onset of reperfusion. […] Following baseline perfusion at 15-20 mL/min to maintain a perfusion pressure of 60-70 mmHg, flow was completely stopped for 30 min (Ischemia phase), and APs (3.8 s epochs) were recorded at 1-min intervals. Following the ischemia phase, perfusion was restored initially at the same flow rate and then was adjusted slightly to exactly match the perfusion pressure during the baseline perfusion phase (Reperfusion phase). The optimal equilibration concentration of each agent was determined by its effects on ischemia-induced AP shortening, recovery of the AP duration (APD), and/or prevention of arrhythmias upon reperfusion.
# Next, the ability of any of these pharmacological interventions to modulate the electrophysiological response of hearts to no-flow global ischemia was tested. […] Also, APD shortening in ischemia was accompanied by progressive reduction of the AP upstroke velocity, which occurred over a similar time frame (see, for example, FIG. 4).
# Ischemic elevation of extracellular K^+ concentration, which may be mediated in part by KATP channel opening, might also be expected to partially depolarize the cellular resting membrane potential. […]
# [3] = test system: Langendorff-perfused guinea pig hearts; assay: Response to reperfusion after 30 min ischemia (arrhythmias, AP recovery); settings: for period of electrical inexcitability upon reperfusion: 0.2 μM CsA, 4′-Cl-DZP pretreated hearts; for post-ischemic (reperfusion) arrhythmias, effect in words: reperfusion after 30 min ischemia
# Experimental: as §2, §1, §3
# Reperfusion of untreated control hearts was associated with sustained ventricular fibrillation (VF) in 89% of hearts (FIG. 5).
# [4] = test system: freshly isolated adult guinea pig ventricular myocytes; assay: ΔΨm oscillations and action potentials in isolated cardiomyocytes (two-photon TMRM imaging with current-clamp); type: cell-based
compound,measurement,setting,value
CCCCCCN(CCCCCC)C(=O)Cc1c(-c2ccc(F)cc2)[nH]c2ccccc12 [FGIN-1-27],effect on APD and excitability during normal perfusion,"[1]; 46 μM, normal perfusion",significant APD shortening and membrane inexcitability
same,time from drug delivery to APD shortening and membrane inexcitability,"[1]; 46 μM, normal perfusion",≤ 15 min
same,baseline APD,[1]; baseline perfusion,174 ± 16 ms
same,baseline CV (conduction velocity),[1]; baseline perfusion,44 ± 6 cm/s
same,time for the onset of inexcitability during ischemia,[2],12.7 ± 2.6 min
same,ischemia-induced APD shortening,[2],accelerated APD shortening during ischemia
same,ischemia-induced reduction of normalized APA and upstroke velocity (dF/dt),[2],accentuated the ischemia-induced reduction of APA and dF/dt; also recorded: more enhanced reduction of action potential amplitude
same,slowing of CV during ischemia,[2]; versus untreated hearts,disproportionate slowing of CV
same,period of electrical inexcitability upon reperfusion,[3],prolonged period of electrical silence
same,hearts with ventricular tachycardia (VT) upon reperfusion,[3]; FGIN-1-27 treated hearts,6 of 6
same,cycle length of VT upon reperfusion,[3]; compared to control hearts,significantly longer cycle length
same,"post-ischemic (reperfusion) arrhythmias, effect in words",[3],long period of electrical silence followed by ventricular tachycardia (VT) of long duration
COc1ccc(Cl)cc1C(=O)NCCc1ccc(S(=O)(=O)NC(=O)NC2CCCCC2)cc1 [GLIBEN],baseline APD,[1]; baseline perfusion,182 ± 16 ms
same,baseline CV (conduction velocity),[1]; baseline perfusion,41 ± 5 cm/s
same,time for the onset of inexcitability during ischemia,[2],~18 min
same,ischemia-induced APD shortening,[2],marked reduction in the rate of APD shortening
same,ischemia-induced reduction of normalized APA and upstroke velocity (dF/dt),[2],protected against such decrease in both parameters
same,hearts in which tachyarrhythmias were prevented,[3]; bolus dose given just prior to reperfusion,2 of 3
"CN1C(=O)CN=C(c2ccc(Cl)cc2)c2cc(Cl)ccc21 [4′-Cl-DZP, 4′-chlorodiazepam]",time from drug application to suppression of AP oscillations and stabilisation of APD90,[4]; 64 μM,≤ 2 min
same,oscillations in APD,"[4]; current-clamp, laser-triggered oscillations, 64 μM",eliminated oscillations in APD; also recorded: APD oscillations are eliminated
same,whole-cell oscillations in ΔΨm,"[4]; oscillations triggered by focal two-photon laser flash, TMRM fluorescence",suppressed whole-cell oscillations in ΔΨm; also recorded: interruption of mitochondrial oscillations with ΔΨm recovery
same,time to return of ΔΨm oscillations after washout of the compound,"[4]; washout, FIG. 1A",≤ 10 min
same,effect on APD or CV during baseline perfusion,"[1]; 100 μM, baseline perfusion",no significant effect on APD or CV; also recorded: comparable
same,baseline APD,[1]; baseline perfusion,188 ± 16 ms
same,baseline CV (conduction velocity),[1]; baseline perfusion,39 ± 5 cm/s
same,blunting of AP shortening and persistence of APs during ischemia at the highest concentration,[2],APs persisted even after 30 min of no-flow ischemia
same,blunting of AP shortening and persistence of APs during ischemia at the highest concentration,[2]; listed as 4′Cl-DZP,most effective in blunting AP shortening during ischemia
same,ischemia-induced APD shortening,[2],blunted APD shortening in a dose-dependent fashion; also recorded: blunted APD shortening during ischemia
same,ischemia-induced reduction of normalized APA and upstroke velocity (dF/dt),[2],protected against such decrease in both parameters
same,period of electrical inexcitability upon reperfusion,[3],< 2 min
same,restoring the APD upon reperfusion and preventing arrhythmias,[3]; 100 μM versus 64 μM,not as effective as the lower concentration of 64 μM in restoring the APD upon reperfusion and preventing arrhythmias
same,prevention of reperfusion-related VF,[3]; 320 μM high dose bolus 5 min prior to onset of reperfusion,4 of 4
same,prevention of reperfusion-related VF,[3]; 32-64 μM delivered continuously prior to ischemia,6 of 8
same,hearts that exhibited no sustained arrhythmias upon reperfusion,[3]; all 4′-Cl-DZP treated hearts (continuous and bolus),10 of 12
same,recovery of the AP upon reperfusion,"[3]; optimal concentrations (64 μM 4′-Cl-DZP, 0.2 μM CsA)",promoted the rapid recovery of the AP morphology and duration
same,"post-ischemic (reperfusion) arrhythmias, effect in words",[3],markedly decreased the incidence of post-ischemic arrhythmias; also recorded: more effective than continuous inhibition of KATP channels
same,"post-ischemic (reperfusion) arrhythmias, effect in words",[3]; listed as 4′CL-DZP,prevented reperfusion-related ventricular fibrillation
